What all share (format): cell-based
Experiment [1] concerns human cervical epithelioid carcinoma (HeLa). Briefly: In vitro anticancer assay (MTT), HeLa. The conditions noted are these: HeLa cells, 48 hrs, mean ± spread, read-out: Anti-proliferative evaluation IC50, HeLa. A digest of the protocol:
(§1)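 MTT viability assay read at 570 nm, with formazan dissolved in DMSO. Growth was expressed as percent of control, (Abtreated/Abcontrol)×100, using mean absorbance (n=3).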

Experiment [2] deals with oral squamous cell carcinoma (SAS). As to the kind of experiment: In vitro anticancer assay (MTT), SAS. Particulars: SAS cells, 48 hrs, mean ± spread, read-out: Anti-proliferative evaluation IC50, SAS. Put shortly: as §1
Experiment [3] deals with hepatocellular carcinoma (SKHep1). Briefly: In vitro anticancer assay (MTT), SKHep1. The conditions noted are these: SKHep1 cells, 48 hrs, mean ± spread, read-out: Anti-proliferative evaluation IC50, SKHep1. Put shortly: as §1
The subject of experiment [4] is human stomach adenocarcinoma (AGS). Briefly: In vitro anticancer assay (MTT), AGS. Particulars: AGS cells, 48 hrs, mean ± spread, read-out: Anti-proliferative evaluation IC50, AGS. A digest of the protocol: as §1
Experiment [5] deals with human renal clear cell carcinoma. Briefly: In vitro anticancer assay (MTT), RCC 768-O. Particulars: RCC 768-O cells, 48 hrs, mean ± spread, read-out: Anti-proliferative evaluation IC50, RCC 768-O. Put shortly: as §1
Experiment [6] deals with esophageal carcinoma (CE81T). Briefly: In vitro anticancer assay (MTT), CE81T. Particulars: CE81T cells, 48 hrs, mean ± spread, read-out: Anti-proliferative evaluation IC50, CE81T. A digest of the protocol:
as §1

The subject of a further experiment is cancer cells. As to the kind of experiment: In vitro anticancer assay, summary over the six cancer cells. Particulars: summary of Table 2. As to the method:
Six cancer cells, i.e., cells of human cervical epithelioid carcinoma (HeLa), hepatocellular carcinoma (SKHep1), oral squamous cell carcinoma (SAS), human stomach adenocarcinoma (AGS), human renal clear cell carcinoma (RCC 768-O) and esophageal carcinoma (CE81T), were treated with the selected compounds as indicated for 48 hrs in a medium containing 10% FBS (3-[4,5-Dimethylthiazol-2-yl]-2,5-diphenyltetrazolium bromide (MTT, 2 mg/mL, […]) was added to the cultures and incubated during the final 1.5 hrs. The resultant tetrazolium salt was then dissolved by the addition of dimethyl sulfoxide. Color was measured spectrophotometrically in a microtiter plate reader at 570 nm and used as a relative measure of viable cell number. The number of viable cells after treatment was compared to solvent and untreated control cells and used to determine the percent of control growth as (Abtreated/Abcontrol)×100, where Ab represents the mean absorbance (n=3). The concentration that killed 50% of cells (IC50) was determined from the linear portion of the curve by calculating the concentration of agent that reduced absorbance in treated cells, as compared to control cells, by 50% (S. D. Heo et al. (1990), Cancer Res., 50:3681-3690). (+)-camptothecin (CPT) and doxorubicin hydrochloride (Dox) were used for comparison with the compounds according to this invention.

These results are taken from patent publication US7829567B2, “Imino-indeno[1,2-c] quinoline derivatives, their preparation processes, and pharmaceutical compositions comprising the same” (Kaohsiung Medical University, priority 2007, dated 2010).

What is called IC50 is the point on the concentration scale where inhibition reaches its midpoint. Regarding `COc1cccc2c1C(=O)c1c-2c(N2CCNCC2)nc2ccccc12` [Compound 5bb], the IC50 in experiment [1] was determined as 400 ± 100 nM; in experiment [2], 5100 ± 800 nM; in experiment [3], 700 ± 300 nM; in experiment [4] it was 4100 ± 1200 nM; in experiment [5], 1700 ± 500 nM; in experiment [6] it was 4900 ± 1500 nM. Further, in the experiment on cancer cells, the “anticancer activity (in words)” value is “broad and potent anticancer activity”.
